Assay results taken from US10159685B2, “Vascular calcification” (Cambridge Enterprise Limited, priority 2016, dated 2018).
Like-named read-outs stand apart in the source and are kept apart here. Marks after values point to notes of the source that are not given here.

Key:
[1] = system: bovine vascular smooth muscle cells (bVSMCs); assay type: cell-based; conditions: 7 days; for Cell viability of bVSMCs after seven days (MTT signal, relative to control): mean of three experiments
Description: The toxicity of the identified compounds to bovine VSMCs was measured using the MTT assay, which measures the activity of dehydrogenase enzymes of live cells. This assay can pick up both cell death and proliferation.
Bovine VSMCs were seeded in 96 well plates and cultured in M199/20% FCS for 1 day. Then, the cells were incubated with inhibitor concentrations from 0.5 to 100 μM (in M199 medium+5% FBS). The cells were incubated with the inhibitors for 7 days; every 2-3 days the medium −/+inhibitors was exchanged. Then, the MTT assay was performed. The stock vehicle DMSO was tested at corresponding concentrations to the inhibitors at 0.1% DMSO or less.

[2] = system: human monocyte-macrophages (HMMs); assay: MTT toxicity assay, HMMs, seven days (Example 3); assay type: cell-based; conditions: 7 days; for Cell viability by MTT, percent of control: mean of three experiments; for Toxicity to HMMs (in words): at a concentration of 100 μM
Description: A similar set of toxicity experiments was performed with human monocyte-macrophages (HMMs).

[3] = system: bovine vascular smooth muscle cells (bVSMCs); assay: o-Cresolphthalein Ca2+ assay, bVSMC GAD calcification model (Examples 4 and 5); assay type: cell-based; conditions: GAD-treated bVSMCs, 10 μM, 7 d
Description: (§1) For the bVSMCs a GAD medium (10 mM β-glycerophosphate/0.1 mM L-ascorbic acid-2-phosphate/10 nM dexamethasone) model was used to induce mineralization in bVSMCs. Accordingly, cells were seeded in tissue culture plates using M199/20% FCS culture medium and cultured overnight. The next day, cells were treated either with medium only (M199/5% FBS)+/−inhibitors, or with the GAD-medium (10 mM β-glycerophosphate/0.1 mM L-ascorbic acid-2-phosphate/[…] dexamethasone)+/−inhibitors.
Medium+/−inhibitors was exchanged every 2-3 days. […]
The o-Cresolphthalein assay is a spectrophotometric method for measuring Ca^2+-concentrations in cell/tissue lysates. Following the calcification experiments, cells are briefly washed to remove medium and 100 […]1 of 0.1 N HCl is added to each well to dissolve any mineral deposits. Then, the Ca^2+-concentration of the samples is measured spectrophotometrically (at 570 nm) in the o-cresolphthalein assay with the help of a CaCl2 standard curve in a concentration range of ˜0.02-270 µg Ca^2+/ml.
The commercial BioRad DC protein assay is based on the Lowry method, aka reaction of proteins with a copper-tartrate complex and subsequent reaction with Folin's reagent. Following the calcification experiment, cells are briefly washed to remove medium and 100 µl of solubilisation solution (0.1 M NaOH/1% SDS/DIW) is added to each well to lyse the cells. The protein concentrations of the lysates are subsequently determined in the BioRad DC assay as per supplier's instructions using BSA (bovine serum albumin) as standard.
The in vitro model is the same as the model used in example 4; bovine vascular smooth muscle cells (bVSMCs) cultured so that they produce extracellular matrix, with the addition of the GAD medium (10 mM β-glycerophosphate/0.1 mM L-ascorbic acid-2-phosphate/10 nM dexamethasone).
As above, cells were treated either with medium only (“no-additions”; NA)+/−inhibitors, or with the GAD-medium+/−inhibitors. The inhibitors used were PJ34 and minocyclin (MC) at 10 μM, 1 μM and 0.1 μM.
The methodology was the same as that described in example 4.

[4] = system: PARP produced by a mammalian cell; conditions: have been shown; cited from earlier work
[5] = system: bovine vascular smooth muscle cells (bVSMCs); assay: Alizarin Red S staining, bVSMC GAD calcification model (Example 4); assay type: cell-based; conditions: GAD-treated bVSMCs, 10 μM, 7 d, versus no inhibitor
Description: as §1
Medium+/−inhibitors was exchanged every 2-3 days. Bovine VSMCs were incubated for 7 d prior to assessment.
The Alizarin Red S staining is a visual/histological stain for tissue calcium deposits. Cells are briefly fixed in 4% paraformaldehyde/PIPES buffer pH 7.2 and subsequently stained for 5 min with Alizarin Red S (2% Alizarin Red S/DIW pH 4.2). Excess stain is removed by washing in DIW. Calcium mineral deposits are stained a bright orange red.

[6] = system: human vascular smooth muscle cells (hVSMCs); assay: o-Cresolphthalein Ca2+ assay, hVSMC Ca/P calcification model (Examples 7-9); assay type: cell-based
Description: (§2) Primary hVSMCs were cultured in M199 media containing FBS (M199/5% FBS). They were plated at a known cell density, allowed to grow for 24 hours and then treated with control (DMSO only) or calcification media (DMSO containing 2.7 mM Calcium+2.5 mM phosphate)+/−inhibitors. After 6 days, calcification was assessed using the o-Cresolphthalein assay for quantification of Ca^2+ deposition and a BioRad protein assay for protein content.
Medium+/−inhibitors was exchanged every 2-3 days.
as §2, with “8” for “6”, “using” for “using the”
All of the compounds tested were used at a concentration of 3 μM. Medium+/−inhibitors was exchanged every 2-3 days.
as §2, with “phosphate)+/−compounds.” for “phosphate)+/−inhibitors.”, “8” for “6”, “using” for “using the”
These concentrations were chosen to mimic the systemic concentrations of these drugs following patient dosing according to the dose schedule in the prescribing information for each drug. Medium+/−inhibitors was exchanged every 2-3 days.

[7] = hVSMCs, 6 days, PJ34 10 μM, minocycline and cilostazol 0.5, 1 and 2 μM

SMILES	Cell viability of bVSMCs after seven days (MTT signal, relative to control) ([1]; 0.5 uM)	Cell viability of bVSMCs after seven days (MTT signal, relative to control) ([1]; 1 uM)	Cell viability of bVSMCs after seven days (MTT signal, relative to control) ([1]; 2 uM)	Cell viability of bVSMCs after seven days (MTT signal, relative to control) ([1]; 5 uM)	Cell viability of bVSMCs after seven days (MTT signal, relative to control) ([1]; 10 uM)	Cell viability of bVSMCs after seven days (MTT signal, relative to control) ([1]; 20 uM)	Cell viability of bVSMCs after seven days (MTT signal, relative to control) ([1]; 50 uM)	Cell viability of bVSMCs after seven days (MTT signal, relative to control) ([1]; 100 uM)	Cell viability by MTT, percent of control ([2]; 0.5 uM)	Cell viability by MTT, percent of control ([2]; 1 uM)	Cell viability by MTT, percent of control ([2]; 2 uM)	Cell viability by MTT, percent of control ([2]; 5 uM)	Cell viability by MTT, percent of control ([2]; 10 uM)	Cell viability by MTT, percent of control ([2]; 20 uM)	Cell viability by MTT, percent of control ([2]; 50 uM)	Cell viability by MTT, percent of control ([2]; 100 uM)	Toxicity to HMMs (in words) [2]	Calcium levels (mass of calcium, FIG. 7B) compared to no inhibitors [3]	Normalised calcium levels (mass of calcium per mass of protein, FIG. 9B) [3]	Toxicity to bVSMCs (MTT assay, in words) ([1]; at 50 and 100 μM)	further results
NC(=O)c1cccc(N)c1 [3-AB, 3-aminobenzamide]	95.77	99.58	94.53	93.35*	91.99*	93.42*	94.64	92.48*	115.25	80.78	88.03	93.51	97.34	85.76	95.92	104.20	relatively innocuous	no effect	slightly lower calcium levels		Toxicity to bVSMCs (MTT assay, in words) ([1]; at the concentrations tested (0.5 to 100 μM)): virtually non-toxic; Inhibition of PARP produced by a mammalian cell [4]: inhibit PARP
OCCN(CCO)c1nc(N2CCCCC2)c2nc(N(CCO)CCO)nc(N3CCCCC3)c2n1 [Dipyridamol, dipyridamol]																		elevate calcium levels	elevate calcium levels	toxic	Degree of mineralization judged by eye (Alizarin Red S, FIG. 6) [5]: slightly worse
O=C1CCc2cc(OCCCCc3nnnn3C3CCCCC3)ccc2N1 [cilostazol]	98.22	93.93	86.31*	86.87*	88.38*	90.45*	84.93*	65.21*	105.05	103.62	75.63	90.74	79.83	81.50	73.73	77.06	relatively innocuous	no effect	does not appear to have an effect	toxic	Extracellular matrix calcification (summary statement) ([6]; bovine cell and human cell in vitro vascular calcification model): significantly reduce extracellular matrix calcification; Calcium levels (mass of calcium, FIG. 17) versus DMSO Ca+P positive control [6, 7]: reduce the calcium levels; Normalised calcium levels (mass of calcium per mass of protein, FIG. 19) [6, 7]: lower calcium levels significantly; Normalised calcium levels (mass of calcium per mass of protein, FIG. 22) ([6]; hVSMCs, 8 days, 3 μM): particularly effective; Inhibition of calcification, normalised results (FIG. 27) ([6]; hVSMCs, 8 days, concentrations between 0.05 μM and 3 μM): inhibit calcification significantly and repeatedly
